pIC50: −log10 of the molar value. The source made the active and inactive calls. The rule behind the calls is not given here.
Legend:
[1] = molecular target: Cholinesterase (Equus caballus) (UniProt P81908); assay: Inhibition of […] equine serum BuChE at 20 uM using butyryl thiocholine iodide as substrate preincubated for 30 mins followed by substrate addition and measured after 30 mins by spectrophotometry based Ellman's method relative to control; format: cell-free; conditions: time 60.0 min
Acetylcholinesterase = Acetylcholinesterase (Homo sapiens, UniProt P22303); assay: Inhibition of recombinant human erythrocyte AChE using acetylthiocholine iodide as substrate preincubated for 30 mins followed by substrate addition and measured after 30 mins by spectrophotometry based Ellman's method
Chain of Acetylcholinesterase (P22303 whole entry): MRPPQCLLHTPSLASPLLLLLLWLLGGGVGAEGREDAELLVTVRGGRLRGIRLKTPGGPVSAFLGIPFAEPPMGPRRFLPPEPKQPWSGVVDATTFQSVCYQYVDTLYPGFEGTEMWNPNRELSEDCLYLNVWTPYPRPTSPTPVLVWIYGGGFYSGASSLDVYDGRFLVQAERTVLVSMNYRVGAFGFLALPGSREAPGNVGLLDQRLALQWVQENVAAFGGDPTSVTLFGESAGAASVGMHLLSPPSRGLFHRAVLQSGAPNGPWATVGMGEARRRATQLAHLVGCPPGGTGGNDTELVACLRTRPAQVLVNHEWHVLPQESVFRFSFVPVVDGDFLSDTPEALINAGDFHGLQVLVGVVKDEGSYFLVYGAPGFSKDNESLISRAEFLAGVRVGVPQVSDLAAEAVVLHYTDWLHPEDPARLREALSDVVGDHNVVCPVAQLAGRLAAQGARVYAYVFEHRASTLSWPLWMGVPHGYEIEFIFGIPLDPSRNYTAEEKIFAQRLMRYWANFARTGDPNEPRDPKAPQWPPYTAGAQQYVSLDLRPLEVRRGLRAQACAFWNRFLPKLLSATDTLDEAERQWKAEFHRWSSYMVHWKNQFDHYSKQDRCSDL

[2] = Antioxidant activity assessed as DPPH radical scavenging activity incubated for 25 mins in shaker; format: functional
[3] = Antioxidant activity assessed as DPPH radical scavenging activity at 20 uM incubated for 25 mins in shaker relative to control; format: functional
Cholinesterase = Cholinesterase (Equus caballus, UniProt P81908); assay: Inhibition of […] equine serum BuChE using butyryl thiocholine iodide as substrate preincubated for 30 mins followed by substrate addition and measured after 30 mins by spectrophotometry based Ellman's method; format: cell-free
Chain of Cholinesterase (P81908 whole entry): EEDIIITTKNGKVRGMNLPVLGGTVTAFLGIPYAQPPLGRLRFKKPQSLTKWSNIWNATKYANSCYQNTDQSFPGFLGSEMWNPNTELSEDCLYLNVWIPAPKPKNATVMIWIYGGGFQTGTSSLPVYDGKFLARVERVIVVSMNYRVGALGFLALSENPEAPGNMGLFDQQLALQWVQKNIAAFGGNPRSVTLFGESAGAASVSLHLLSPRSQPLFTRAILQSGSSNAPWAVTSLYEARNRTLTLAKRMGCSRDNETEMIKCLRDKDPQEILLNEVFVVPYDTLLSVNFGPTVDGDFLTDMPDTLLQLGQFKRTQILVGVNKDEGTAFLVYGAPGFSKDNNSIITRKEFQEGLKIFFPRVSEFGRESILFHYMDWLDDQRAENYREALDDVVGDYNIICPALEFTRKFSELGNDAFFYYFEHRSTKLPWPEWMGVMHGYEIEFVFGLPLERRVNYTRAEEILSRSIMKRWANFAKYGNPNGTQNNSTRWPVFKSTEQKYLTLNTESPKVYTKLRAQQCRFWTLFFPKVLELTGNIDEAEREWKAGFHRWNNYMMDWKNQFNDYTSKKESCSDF

[4] = Metal chelating activity assessed as Fe3+-compound complex formation at 300 uM measured for 30 mins by UV-Visible spectrophotometric method
[5] = Metal chelating activity assessed as Fe3+-compound complex formation at 300 uM measured for 30 mins by MS-MS analysis

Chain of Cholinesterase (Equus caballus) (P81908 whole entry): as above

Structure (SMILES) | inhibition [1] | pIC50 (Acetylcholinesterase) | further results
COc1cc(/C=C/C(=O)N2CCN(c3ccc(Cl)cc3)CC2)ccc1O | 33.2% | 4.95 | –
COc1cccc(NC(=O)CNC(=O)/C=C/c2ccc(O)c(OC)c2)c1 | 55.4% | 5.62 | pIC50 [2]: 4.03; Activity [3]: 19.1%; pIC50 (Cholinesterase): 4.82; Activity [4]: Active; Activity [5]: Active
COc1cc(/C=C/C(=O)NCC(=O)Nc2ccc(Br)cc2)ccc1O | 39.3% | 4.99 | –
COc1cc(/C=C/C(=O)NCC(=O)Nc2ccc(C#N)cc2)ccc1O | 35.7% | 4.76 | –
COc1cc(/C=C/C(=O)NCC(=O)Nc2cccc(C(F)(F)F)c2)ccc1O | 34.9% | 5.03 | –
COc1cc(/C=C/C(=O)N2CCN(c3cccc([N+](=O)[O-])c3)CC2)ccc1O | 37.9% | 4.63 | –
COc1cc(/C=C/C(=O)NCC(=O)Nc2cccc(C#N)c2)ccc1O | 31.6% | 4.80 | –
COc1cc(/C=C/C(=O)NCC(=O)Nc2ccc(C(F)(F)F)cc2)ccc1O | 37.2% | 5.08 | –
COc1cccc(N2CCN(C(=O)/C=C/c3ccc(O)c(OC)c3)CC2)c1 | 26.9% | 5.00 | pIC50 [2]: 4.21; Activity [3]: 28.8%
COc1cc(/C=C/C(=O)NCC(=O)Nc2ccccc2C(F)(F)F)ccc1O | 43.2% | 4.82 | –
COc1cc(/C=C/C(=O)NCC(=O)Nc2ccccc2C)ccc1O | 36.8% | 4.79 | –
COc1cc(/C=C/C(=O)NCC(=O)Nc2ccccc2F)ccc1O | 31.9% | 4.76 | –
COc1cc(/C=C/C(=O)N2CCN(c3ccc(F)cc3)CC2)ccc1O | 27.7% | 4.96 | –
COc1ccc(N2CCN(C(=O)/C=C/c3ccc(O)c(OC)c3)CC2)cc1 | 44.7% | 4.92 | –
COc1cc(/C=C/C(=O)NCC(=O)Nc2ccccc2Cl)ccc1O | 47.4% | 5.24 | –
COc1cc(/C=C/C(=O)NCC(=O)Nc2ccccc2OC)ccc1O | 43.3% | 5.24 | –

Reference: ChEMBL document CHEMBL4765306, “Design, synthesis and biological evaluation of novel naturally-inspired multifunctional molecules for the management of Alzheimer's disease” (Eur J Med Chem, 2020)
